In brackets after ≈: the same amount, converted by molar mass.
Columns and labels:
[1] = target: T1, KinA/Spo0F (sporulation kinase A/sporulation initiation phosphotransferase F) (Bacillus subtilis (strain 168), UniProt P06628+P16497); assay: Inhibition of histidine protein kinase (KinA) phosphorylation in the presence of response regulator (Spo0F); type: protein assay
T1 sequence (P06628 whole entry): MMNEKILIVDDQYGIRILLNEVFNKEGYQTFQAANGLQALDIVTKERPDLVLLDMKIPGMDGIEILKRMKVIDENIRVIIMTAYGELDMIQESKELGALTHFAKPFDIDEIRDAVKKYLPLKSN
T1 sequence (P16497 whole entry): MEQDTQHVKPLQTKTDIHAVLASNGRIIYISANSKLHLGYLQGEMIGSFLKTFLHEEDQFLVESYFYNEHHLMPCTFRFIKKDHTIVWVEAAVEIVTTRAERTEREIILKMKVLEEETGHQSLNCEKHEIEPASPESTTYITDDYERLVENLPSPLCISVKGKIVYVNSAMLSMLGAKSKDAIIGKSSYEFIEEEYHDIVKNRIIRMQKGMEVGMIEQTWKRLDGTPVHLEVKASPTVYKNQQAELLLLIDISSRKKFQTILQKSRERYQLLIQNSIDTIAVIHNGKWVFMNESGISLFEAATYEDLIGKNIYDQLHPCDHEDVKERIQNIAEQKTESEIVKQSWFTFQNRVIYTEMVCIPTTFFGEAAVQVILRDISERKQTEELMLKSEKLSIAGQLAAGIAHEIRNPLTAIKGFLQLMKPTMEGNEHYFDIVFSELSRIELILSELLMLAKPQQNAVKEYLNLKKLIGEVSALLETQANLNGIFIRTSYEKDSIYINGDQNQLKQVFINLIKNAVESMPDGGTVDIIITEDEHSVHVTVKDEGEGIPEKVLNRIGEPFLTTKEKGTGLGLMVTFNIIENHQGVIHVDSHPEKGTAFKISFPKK

[2] = test system: Enterococcus faecium; assay: Compound was tested for its antibacterial activity against Enterococcus faecium (Vancomycin resistant, VRE) OC 3312.; type: functional
[3] = test system: Enterococcus faecalis; assay: Compound was tested for its antibacterial activity against Enterococcus faecalis OC 3041.; type: functional
[4] = test system: Staphylococcus aureus; assay: Compound was tested for its antibacterial activity against MRSA (methicillin resistant) OC 2089.; type: functional
[5] = test system: Staphylococcus aureus; assay: Compound was tested for its antibacterial activity against Staph aureus ATCC 29213.; type: functional
[6] = Partition coefficient (logP); type: physicochemical; details: octanol/water

| IC50 [1] | Compound | MIC [2] | further results |
| --- | --- | --- | --- |
| 365 µM | O=C(Nc1ccc(Cl)c(Cl)c1)Nc1cc(Cl)cc(Cl)c1O | – | – |
| 22 µM | O=C(Nc1ccc(Cl)c(Cl)c1)c1cc(I)cc(I)c1O | – | – |
| – | CN[C@H](CC(C)C)C(=O)N[C@H]1C(=O)N[C@@H](CC(N)=O)C(=O)N[C@H]2C(=O)N[C@H]3C(=O)N[C@H](C(=O)N[C@H](C(=O)O)c4cc(O)cc(O)c4-c4cc3ccc4O)[C@H](O)c3ccc(c(Cl)c3)Oc3cc2cc(c3O[C@@H]2O[C@H](CO)[C@@H](O)[C@H](O)[C@H]2O[C@H]2C[C@](C)(N)[C@H](O)[C@H](C)O2)Oc2ccc(cc2Cl)[C@H]1O [VANCOMYCIN] | > 128 µg/mL | – |
| 4.8 µM | Cc1cc(NC(=O)c2cc(Cl)cc(Cl)c2O)c(Cl)cc1C(C#N)c1ccc(Cl)cc1 (stereo unspecified) | – | – |
| 9 µM | Cc1cc(NC(=O)c2cc(I)c(O)c(I)c2)c(Cl)cc1C(C#N)c1ccc(Cl)cc1 (stereo unspecified) | – | – |
| > 500 µM | O=C(Nc1ccc(Cl)c(Cl)c1)c1cc(Cl)cc(Cl)c1 | – | – |
| – | Cc1onc(-c2ccccc2)c1C(=O)N[C@@H]1C(=O)N2[C@@H]1SC(C)(C)[C@@H]2C(=O)O [OXACILLIN] | > 64 µg/mL | MIC [3]: 16 µg/mL (≈ 39.9 µM); MIC [4]: > 64 µg/mL; MIC [5]: 0.25 µg/mL (≈ 0.623 µM) |
| > 500 µM | Oc1c(Cl)cc(Cl)cc1/C=C/c1ccc(Cl)c(Cl)c1 | – | – |
| 385 µM | O=C(Nc1ccccc1)c1cc(Cl)cc(Cl)c1O | – | – |
| > 500 µM | Cc1cc(N(C)C(=O)c2cc(I)cc(I)c2O)c(Cl)cc1C(C#N)c1ccc(Cl)cc1 (stereo unspecified) | – | – |
| > 500 µM | O=C(NCc1ccc(Cl)c(Cl)c1)c1cc(Cl)cc(Cl)c1O | – | – |
| > 500 µM | COc1c(I)cc(I)cc1C(=O)Nc1cc(C)c(C(C#N)c2ccc(Cl)cc2)cc1Cl (stereo unspecified) | – | – |

| Compound | IC50 [1] | MIC [2] | further results |
| --- | --- | --- | --- |
| O=C(Nc1ccc(Cl)c(Cl)c1)c1cc(Cl)c(O)c(Cl)c1 | 98 µM | 64 µg/mL (≈ 182 µM) | MIC [3]: 64 µg/mL (≈ 182 µM); MIC [4]: 16 µg/mL (≈ 45.6 µM); MIC [5]: 16 µg/mL (≈ 45.6 µM) |
| O=C(Nc1ccc(Cl)c(Cl)c1)c1cc(Cl)cc(Cl)c1O [3,3',4',5-TETRACHLOROSALICYLANILIDE] | 45 µM | 0.5 µg/mL (≈ 1.42 µM) | logP [6]: 4.8; MIC [3]: 0.5 µg/mL (≈ 1.42 µM); MIC [4]: 0.25 µg/mL (≈ 0.712 µM); MIC [5]: 0.5 µg/mL (≈ 1.42 µM) |
| O=C(Nc1cc(Cl)cc(Cl)c1O)c1ccc(Cl)c(Cl)c1 | > 500 µM | 1 µg/mL (≈ 2.85 µM) | MIC [3]: 2 µg/mL (≈ 5.7 µM); MIC [4]: 0.25 µg/mL (≈ 0.712 µM); MIC [5]: 0.5 µg/mL (≈ 1.42 µM) |

Source: ChEMBL document CHEMBL1130897, “Novel inhibitors of bacterial two-component systems with gram positive antibacterial activity: pharmacophore identification based on the screening hit closantel” (Bioorg Med Chem Lett, 1998)
